Assay results from patent publication US5164388A, “Heterocyclic peptide renin inhibitors” (Abbott Laboratories, priority 1991, dated 1992).

Assays:
[1] = system: Plasma Renin Activity; experiment: Plasma renin activity in salt depleted monkeys following oral dosing; assay type: in vivo, cynomolgous monkeys; conditions: oral 3 mg/kg
Method: (§1) The ability of the compounds of the invention to decrease blood pressure and plasma renin activity in vivo can be determined using the following method.
(§2) Male cynomolgous monkeys housed under constant temperature and lighting conditions and weighing 3-5 kg were instrumented with chronic indwelling arterial and venous catheters. Following pretreatment by salt-depletion, the monkeys were dosed by nasogastric tube with 3 mg/kg of the compound of Example 152.

[2] = Blood pressure in salt depleted monkeys following oral dosing; assay type: in vivo, cynomolgous monkeys; conditions: oral 3 mg/kg
Method: as §1, §2

[3] = target: T1, human renal renin (Homo sapiens, UniProt P00797); experiment: Inhibition of human renal renin in vitro (angiotensin I formed, radioimmunoassay); assay type: biochemical; conditions: human angiotensinogen substrate, 37 degrees C., pH 6.0
T1 construct: human renal renin, free from acid proteolytic activity; from tissue
T1 sequence (P00797 67-406): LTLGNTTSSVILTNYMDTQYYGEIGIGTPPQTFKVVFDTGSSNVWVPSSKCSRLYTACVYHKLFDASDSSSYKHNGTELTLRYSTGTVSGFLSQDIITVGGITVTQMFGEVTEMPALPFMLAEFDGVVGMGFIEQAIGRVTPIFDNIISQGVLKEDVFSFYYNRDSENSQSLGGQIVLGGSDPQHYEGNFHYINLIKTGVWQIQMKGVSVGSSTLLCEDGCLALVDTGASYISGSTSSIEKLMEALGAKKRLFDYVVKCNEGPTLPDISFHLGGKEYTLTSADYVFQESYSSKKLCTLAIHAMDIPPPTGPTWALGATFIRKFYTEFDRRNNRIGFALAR
Method: The novel compounds of the present invention are also useful for treating congestive heart failure. […] At the end of the incubation, the amount of angiotensin I formed is measured by radioimmunoassay and the molar concentration required to cause 50% inhibition, expressed as the IC50, is calculated.

[4] = Mean of three monkeys, time 0 min
[5] = Mean of three monkeys, time 5 min
[6] = Mean of three monkeys, time 15 min
[7] = Mean of three monkeys, time 30 min
[8] = Mean of three monkeys, time 60 min
[9] = Mean of three monkeys, time 90 min
[10] = Mean of three monkeys, time 120 min
[11] = Mean of three monkeys, time 180 min
[12] = Mean of three monkeys, time 360 min

CC1COC(C(O)C(CC2CCCCC2)NC(=O)C(Cc2cscn2)N2CCCC(Cc3ccccc3)(NS(=O)(=O)N3CCN(C)CC3)C2=O)C1 [Example 152, (2S1-((3S)-((N-methylpiperazinsulfonyl)amino-3-phenylmethyl-2-oxo-1-piperidinyl)-3-(4-thiazolyl)propionic acid amide of (2S,4S,1'R,2'S)-2-(2'-amino-3'-cyclohexyl-1'-hydroxypropyl)-4-methyltetrahydrofuran]
Plasma Renin Activity (PRA) [1, 4]: 21.7 ng/mL/h
Plasma Renin Activity (PRA) [1, 5]: 0.8 ng/mL/h
Plasma Renin Activity (PRA) [1, 6]: 0.2 ng/mL/h
Plasma Renin Activity (PRA) [1, 7]: 0.0 ng/mL/h
Plasma Renin Activity (PRA) [1, 8]: 0.0 ng/mL/h
Plasma Renin Activity (PRA) [1, 9]: 0.0 ng/mL/h
Plasma Renin Activity (PRA) [1, 10]: 0.1 ng/mL/h
Plasma Renin Activity (PRA) [1, 11]: 0.1 ng/mL/h
Plasma Renin Activity (PRA) [1, 12]: 0.5 ng/mL/h
Plasma Renin Activity (PRA) ([1]; Monkey 1, time 0 min): 12.6 ng/mL/h
Plasma Renin Activity (PRA) ([1]; Monkey 1, time 5 min): 2.2 ng/mL/h
Plasma Renin Activity (PRA) ([1]; Monkey 1, time 15 min): 0.44 ng/mL/h
Plasma Renin Activity (PRA) ([1]; Monkey 1, time 30 min): 0.0 ng/mL/h
Plasma Renin Activity (PRA) ([1]; Monkey 1, time 60 min): 0.0 ng/mL/h
Plasma Renin Activity (PRA) ([1]; Monkey 1, time 90 min): 0.1 ng/mL/h
Plasma Renin Activity (PRA) ([1]; Monkey 1, time 120 min): 0.0 ng/mL/h
Plasma Renin Activity (PRA) ([1]; Monkey 1, time 180 min): 0.1 ng/mL/h
Plasma Renin Activity (PRA) ([1]; Monkey 1, time 360 min): 0.2 ng/mL/h
Plasma Renin Activity (PRA) ([1]; Monkey 2, time 0 min): 34.2 ng/mL/h
Plasma Renin Activity (PRA) ([1]; Monkey 2, time 5 min): 0.1 ng/mL/h
Plasma Renin Activity (PRA) ([1]; Monkey 2, time 15 min): 0.0 ng/mL/h
Plasma Renin Activity (PRA) ([1]; Monkey 2, time 30 min): 0.0 ng/mL/h
Plasma Renin Activity (PRA) ([1]; Monkey 2, time 60 min): 0.0 ng/mL/h
Plasma Renin Activity (PRA) ([1]; Monkey 2, time 90 min): 0.0 ng/mL/h
Plasma Renin Activity (PRA) ([1]; Monkey 2, time 120 min): 0.3 ng/mL/h
Plasma Renin Activity (PRA) ([1]; Monkey 2, time 180 min): 0.2 ng/mL/h
Plasma Renin Activity (PRA) ([1]; Monkey 2, time 360 min): 0.7 ng/mL/h
Plasma Renin Activity (PRA) ([1]; Monkey 3, time 0 min): 18.4 ng/mL/h
Plasma Renin Activity (PRA) ([1]; Monkey 3, time 5 min): 0.1 ng/mL/h
Plasma Renin Activity (PRA) ([1]; Monkey 3, time 15 min): 0.2 ng/mL/h
Plasma Renin Activity (PRA) ([1]; Monkey 3, time 30 min): 0.0 ng/mL/h
Plasma Renin Activity (PRA) ([1]; Monkey 3, time 60 min): 0.1 ng/mL/h
Plasma Renin Activity (PRA) ([1]; Monkey 3, time 90 min): 0.0 ng/mL/h
Plasma Renin Activity (PRA) ([1]; Monkey 3, time 120 min): 0.0 ng/mL/h
Plasma Renin Activity (PRA) ([1]; Monkey 3, time 180 min): 0.1 ng/mL/h
Plasma Renin Activity (PRA) ([1]; Monkey 3, time 360 min): 0.7 ng/mL/h
Blood Pressure (BP) [2, 4]: 86 mmHg
Blood Pressure (BP) [2, 5]: 85 mmHg
Blood Pressure (BP) [2, 6]: 79 mmHg
Blood Pressure (BP) [2, 7]: 74 mmHg
Blood Pressure (BP) [2, 8]: 73 mmHg
Blood Pressure (BP) [2, 9]: 76 mmHg
Blood Pressure (BP) [2, 10]: 77 mmHg
Blood Pressure (BP) [2, 11]: 79 mmHg
Blood Pressure (BP) [2, 12]: 83 mmHg
Blood Pressure (BP) ([2]; Monkey 1, time 0 min): 75 mmHg
Blood Pressure (BP) ([2]; Monkey 1, time 5 min): 75 mmHg
Blood Pressure (BP) ([2]; Monkey 1, time 15 min): 75 mmHg
Blood Pressure (BP) ([2]; Monkey 1, time 30 min): 71 mmHg
Blood Pressure (BP) ([2]; Monkey 1, time 60 min): 70 mmHg
Blood Pressure (BP) ([2]; Monkey 1, time 90 min): 74 mmHg
Blood Pressure (BP) ([2]; Monkey 1, time 120 min): 68 mmHg
Blood Pressure (BP) ([2]; Monkey 1, time 180 min): 72 mmHg
Blood Pressure (BP) ([2]; Monkey 1, time 360 min): 72 mmHg
Blood Pressure (BP) ([2]; Monkey 2, time 0 min): 105 mmHg
Blood Pressure (BP) ([2]; Monkey 2, time 5 min): 99 mmHg
Blood Pressure (BP) ([2]; Monkey 2, time 15 min): 92 mmHg
Blood Pressure (BP) ([2]; Monkey 2, time 30 min): 82 mmHg
Blood Pressure (BP) ([2]; Monkey 2, time 60 min): 85 mmHg
Blood Pressure (BP) ([2]; Monkey 2, time 90 min): 85 mmHg
Blood Pressure (BP) ([2]; Monkey 2, time 120 min): 80 mmHg
Blood Pressure (BP) ([2]; Monkey 2, time 180 min): 92 mmHg
Blood Pressure (BP) ([2]; Monkey 2, time 360 min): 93 mmHg
Blood Pressure (BP) ([2]; Monkey 3, time 0 min): 77 mmHg
Blood Pressure (BP) ([2]; Monkey 3, time 5 min): 82 mmHg
Blood Pressure (BP) ([2]; Monkey 3, time 15 min): 69 mmHg
Blood Pressure (BP) ([2]; Monkey 3, time 30 min): 69 mmHg
Blood Pressure (BP) ([2]; Monkey 3, time 60 min): 65 mmHg
Blood Pressure (BP) ([2]; Monkey 3, time 90 min): 70 mmHg
Blood Pressure (BP) ([2]; Monkey 3, time 120 min): 82 mmHg
Blood Pressure (BP) ([2]; Monkey 3, time 180 min): 72 mmHg
Blood Pressure (BP) ([2]; Monkey 3, time 360 min): 84 mmHg
IC50 [3]: 0.55 nM
